Data published in patent publication US20250230154A1, “COMPOUND HAVING SHP2 PROTEIN DEGRADING ACTIVITY, AND MEDICAL USES THEREOF” (UBIX THERAPEUTICS, INC., priority 2021, published 2025).

Target: T1, SHP2 protein (Homo sapiens, UniProt Q06124)
T1 sequence (Q06124 1-593): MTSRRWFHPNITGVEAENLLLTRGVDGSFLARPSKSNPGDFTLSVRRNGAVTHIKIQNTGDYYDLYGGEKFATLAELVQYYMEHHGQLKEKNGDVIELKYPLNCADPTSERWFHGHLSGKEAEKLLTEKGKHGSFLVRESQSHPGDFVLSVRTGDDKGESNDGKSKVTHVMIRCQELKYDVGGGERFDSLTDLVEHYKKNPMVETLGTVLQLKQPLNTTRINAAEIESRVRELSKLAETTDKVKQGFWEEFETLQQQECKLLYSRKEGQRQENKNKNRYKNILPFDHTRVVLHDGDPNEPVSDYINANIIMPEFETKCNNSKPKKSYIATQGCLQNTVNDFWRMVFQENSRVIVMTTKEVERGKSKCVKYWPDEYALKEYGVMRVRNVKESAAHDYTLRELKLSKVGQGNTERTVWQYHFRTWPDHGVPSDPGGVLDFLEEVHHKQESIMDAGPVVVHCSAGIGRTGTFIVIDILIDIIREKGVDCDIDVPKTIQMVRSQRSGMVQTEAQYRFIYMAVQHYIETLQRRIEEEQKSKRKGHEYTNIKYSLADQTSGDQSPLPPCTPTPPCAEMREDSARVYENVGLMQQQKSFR
Assay: Measurement of SHP2 protein degradation in KYSE-520 cells (western blotting)
Type: cell-based
Design: endogenous in cells
Conditions: 24 hours
Description: Experimental Example 1: Measurement of SHP2 Protein Degradation in KYSE-520 Cells
KYSE-520 cells were treated with the synthesized Example compound, and the amount of SHP2 protein present in the cells was measured using western blotting detection. The protocol of the experiment conducted using KYSE-520 cells was as follows:
[Culture] KYSE-520 cells resuspended in RPMI1640 MEDIUM (Hyclone, SH30027.01) containing 5% FBS (Hyclone, SV30207.02) and 1% Penicillin-streptomycin (Welgene, LS 202-02) were seeded at a density of 2.5×10^5/well in a 6-well plate in an amount of 2 ml each and incubated for 2 days.
[Compound treatment] […] After 24 hours, cells were harvested. For the negative control group, DMSO diluted 1/10 to the media (3 mL DMSO+27 mL media) was added.
[Cell Lysis and Protein Quantification] Lysis buffer was prepared as follows: […] of RIPA buffer (Biosesang, RC2038-050-00)+0.5 mM PMSF (SIGMA, P7626)+1× Protease/Phosphatase Inhibitor (Cell signaling, 5872S) per well was added and placed on ice for 30 minutes (vortexing at 0 and 30 minutes, respectively). After sonication process (10 seconds pulse, 30 seconds rest, 5 cycles, 70% amplification), centrifugation (15000 g, 15 min, 4° C.) was performed, and then only the supernatant was taken and transferred to a new microtube. The sample was diluted ¼ with RIPA buffer in a 96-well plate, and mixed with A:B=50:1 of the BCA Protein Assay Kit (iNtRON, 21071). […] each of the mixture was left at 37° C. for 30 minutes, and cooled for 10 minutes. Then, absorbance was measured at 562 nm with the SYNERGY H1 microplate reader from BioTek. After making a sample by quantifying the protein with the measured value, boiling was performed at 70° C. for 10 minutes. At this time, the sample buffer used was a mixture of NuPAGE or Bolt 4× sample buffer (Invitrogen) and each 10× sample reducing agent according to the gel to be used, and RIPA buffer was used for protein dilution.
[Western blotting detection method] The same amount of sample was loaded on NuPAGE or Bolt Bis-tris 4-12% gradient gel and run (200 V, 35 minutes). It was transferred to 0.2 mm NC membrane with Trans-blot Turbo (BIO-RAD) (1.3 A constant, 25 V limit, 15 minutes). Blocking was performed at room temperature for 1 hour with Skim milk or Intercept Blocking Buffer (LI-COR, 927-60001):0.1% TBST=1:1. Anti SHPTP2 Mouse (1:500 in 5% Skim milk/TBST, size: 70 kDa, Santacruz sc-7384) was incubated overnight at 4° C., and Anti GAPDH Rabbit (1:2,000 in 5% BSA/0.2% TBST, size: 37 kDa, CST #2118) was incubated at room temperature for 1 hour 30 minutes or 3 hours. It was washed 3 times for 5 minutes each with 0.2% TBST washing buffer. Secondary antibody Anti-Rabbit IgG (1:5,000 in 5% Skim milk/0.2% TBST, CST), and IRDye® 680RD Goat anti-Rabbit IgG Secondary Antibody (1:10,000 in 5% BSA/0.2% TBST, LI-COR 926-68071) were incubated for 45 minutes on a rocker at room temperature. It was washed 5 times for 5 minutes each with 0.2% TBST washing buffer and detected with LI-COR's Odyssey. At this time, SHPTP2 was detected using SuperSignal West Pico PLUS Chemiluminescent Substrate, and house-keeping genes were also detected.
In the results of Table 4 below, Compounds 1-7, 13-19, and 21-26 are results in KYSE-520 cells, and the others are results in MV-4-11 cells.

Compound | SHP2 degradation (%) 10 nM [%] | SHP2 degradation (%) 100 nM [%] | SHP2 degradation (%) 1000 nM [%]
Cc1ncsc1-c1ccc(CNC(=O)[C@@H]2C[C@@H](O)CN2C(=O)[C@@H](NC(=O)C2(F)CC2)C(C)(C)C)c(OCCCC(=O)N2CCC(CCC(=O)Nc3cccc(Sc4cnc(N5CCC(C)(CN)CC5)cn4)c3Cl)CC2)c1 [Example 24, (2S,4R)—N-(2-(4-(4-(3-((3-((5-(4-(aminomethyl)-4-methylpiperidin-1-yl)pyrazin-2-yl)thio)-2-chlorophenyl)amino)-3-oxopropyl)piperidin-1-yl)-4-oxobutoxy)-4-(4-methylthiazol-5-yl)benzyl)-1-((S)-2-(1-fluorocyclopropane-1-carboxamido)-3,3-dimethylbutanoyl)-4-hydroxypyrrolidine-2-carboxamide] | 15.1 | 52.1 | 74.7
Cc1ncsc1-c1ccc(CNC(=O)[C@@H]2C[C@@H](O)CN2C(=O)[C@@H](NC(=O)C2(F)CC2)C(C)(C)C)c(OCCCC(=O)N2CCC(CCCC(=O)Nc3cccc(Sc4cnc(N5CCC(C)(CN)CC5)cn4)c3Cl)CC2)c1 [Example 25, (2S,4R)—N-(2-(4-(4-(4-((3-((5-(4-(aminomethyl)-4-methylpiperidin-1-yl)pyrazin-2-yl)thio)-2-chlorophenyl)amino)-4-oxobutyl)piperidin-1-yl)-4-oxobutoxy)-4-(4-methylthiazol-5-yl)benzyl)-1-((S)-2-(1-fluorocyclopropane-1-carboxamido)-3,3-dimethylbutanoyl)-4-hydroxypyrrolidine-2-carboxamide] |  | 61.8 | 94.7
Cc1ncsc1-c1ccc(CNC(=O)[C@@H]2C[C@@H](O)CN2C(=O)[C@@H](NC(=O)C2(F)CC2)C(C)(C)C)c(OCCCCCC(=O)N2CCC(CCCC(=O)Nc3cccc(Sc4cnc(N5CCC(C)(CN)CC5)cn4)c3Cl)CC2)c1 [Example 26, (2S,4R)—N-(2-((6-(4-(4-((3-((5-(4-(aminomethyl)-4-methylpiperidin-1-yl)pyrazin-2-yl)thio)-2-chlorophenyl)amino)-4-oxobutyl)piperidin-1-yl)-6-oxohexyl)oxy)-4-(4-methylthiazol-5-yl)benzyl)-1-((S)-2-(1-fluorocyclopropane-1-carboxamido)-3,3-dimethylbutanoyl)-4-hydroxypyrrolidine-2-carboxamide] | 40.6 | 83.2 | 95.0
